Test system: 616215-338-R-J1-PDC complex spheroid viability
Test: Anticancer human tumor 616215-338-R-J1-PDC patient-derived colon adenocarcinoma cell line growth inhibition [RAS]
Details: for IC50: curve of first compound; for viability, T/C: stronger effect = lower value
Outline: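 Tumour cells grown as complex spheroids with HUVEC endothelial cells and mesenchymal stem cells, treated with RAS pathway inhibitor combinations. Each agent spans half-log steps from near clinical Cmax, or 10 microM where Cmax is unknown.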

[1] = second compound 0.000949 µM, first compound 0.0316 µM
[2] = second compound 0.000949 µM, first compound 0.1 µM
[3] = second compound 0.000949 µM, first compound 0.316 µM
[4] = second compound 0.000949 µM, first compound 1 µM
[5] = second compound 0.000949 µM, first compound 3.16 µM
[6] = second compound 0.000949 µM, first compound 10 µM
[7] = second compound 0.003 µM, first compound 0.0316 µM
[8] = second compound 0.003 µM, first compound 0.1 µM
[9] = second compound 0.003 µM, first compound 0.316 µM
[10] = second compound 0.003 µM, first compound 1 µM
[11] = second compound 0.003 µM, first compound 3.16 µM
[12] = second compound 0.003 µM, first compound 10 µM
[13] = second compound 0.00949 µM, first compound 0.0316 µM
[14] = second compound 0.00949 µM, first compound 0.1 µM
[15] = second compound 0.00949 µM, first compound 0.316 µM
[16] = second compound 0.00949 µM, first compound 1 µM
[17] = second compound 0.00949 µM, first compound 3.16 µM
[18] = second compound 0.00949 µM, first compound 10 µM
[19] = second compound 0.03 µM, first compound 0.0316 µM
[20] = second compound 0.03 µM, first compound 0.1 µM
[21] = second compound 0.03 µM, first compound 0.316 µM
[22] = second compound 0.03 µM, first compound 1 µM
[23] = second compound 0.03 µM, first compound 3.16 µM
[24] = second compound 0.03 µM, first compound 10 µM
[25] = second compound 0.0949 µM, first compound 0.0316 µM
[26] = second compound 0.0949 µM, first compound 0.1 µM
[27] = second compound 0.0949 µM, first compound 0.316 µM
[28] = second compound 0.0949 µM, first compound 1 µM
[29] = second compound 0.0949 µM, first compound 3.16 µM
[30] = second compound 0.0949 µM, first compound 10 µM
[31] = second compound 0.3 µM, first compound 0.0316 µM
[32] = second compound 0.3 µM, first compound 0.1 µM
[33] = second compound 0.3 µM, first compound 0.316 µM
[34] = second compound 0.3 µM, first compound 1 µM
[35] = second compound 0.3 µM, first compound 3.16 µM
[36] = second compound 0.3 µM, first compound 10 µM
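Further: spheroids exposed to agents for seven days before viability readout.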
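Wherever viability, T/C is given: 100% = DMSO vehicle control viability.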

SMILES: CC(=O)OC12COC1CC(O)C1(C)C(=O)C(O)C3=C(C)C(OC(=O)C(O)C(NC(=O)OC(C)(C)C)c4ccccc4)CC(O)(C(OC(=O)c4ccccc4)C21)C3(C)C (stereo unspecified) + CCn1c(-c2cccnc2C(C)OC)c2c3cc(ccc31)N1CCOC(CC(NC(=O)C(C(C)C)N(C)C(=O)C3(F)CCN(C(=O)C#CC(C)(C)N(C)C)CC3)C(=O)N3CCCC(N3)C(=O)OCC(C)(C)C2)C1
- IC50 (second compound 0.000949 µM): < 31.6 nM
- IC50 (second compound 0.003 µM): < 31.6 nM
- IC50 (second compound 0.00949 µM): < 31.6 nM
- IC50 (second compound 0.03 µM): < 31.6 nM
- IC50 (second compound 0.0949 µM): < 31.6 nM
- IC50 (second compound 0.3 µM): < 31.6 nM
- viability, T/C [1]: 30.9%
- viability, T/C [2]: 20.4%
- viability, T/C [3]: 19.5%
- viability, T/C [4]: 19.6%
- viability, T/C [5]: 22.6%
- viability, T/C [6]: 28.7%
- viability, T/C [7]: 30.8%
- viability, T/C [8]: 23.1%
- viability, T/C [9]: 20.3%
- viability, T/C [10]: 22.1%
- viability, T/C [11]: 24.2%
- viability, T/C [12]: 27%
- viability, T/C [13]: 28%
- viability, T/C [14]: 24.2%
- viability, T/C [15]: 19.9%
- viability, T/C [16]: 20.8%
- viability, T/C [17]: 24.8%
- viability, T/C [18]: 24.6%
- viability, T/C [19]: 25.9%
- viability, T/C [20]: 21.9%
- viability, T/C [21]: 18.3%
- viability, T/C [22]: 19%
- viability, T/C [23]: 22.6%
- viability, T/C [24]: 22.4%
- viability, T/C [25]: 33%
- viability, T/C [26]: 19.8%
- viability, T/C [27]: 19.8%
- viability, T/C [28]: 19%
- viability, T/C [29]: 22.2%
- viability, T/C [30]: 23.1%
- viability, T/C [31]: 28.8%
- viability, T/C [32]: 17.9%
- viability, T/C [33]: 17%
- viability, T/C [34]: 17.6%
- viability, T/C [35]: 20.8%
- viability, T/C [36]: 25.5%

SMILES: NC1c2ccccc2OC12CCN(c1cnc3c(N4CCCc5ncccc54)n[nH]c3n1)CC2 (stereo unspecified) + CCn1c(-c2cccnc2C(C)OC)c2c3cc(ccc31)N1CCOC(CC(NC(=O)C(C(C)C)N(C)C(=O)C3(F)CCN(C(=O)C#CC(C)(C)N(C)C)CC3)C(=O)N3CCCC(N3)C(=O)OCC(C)(C)C2)C1
- IC50 (second compound 0.000949 µM): 6250 nM
- IC50 (second compound 0.003 µM): 7000 nM
- IC50 (second compound 0.00949 µM): > 10000 nM
- IC50 (second compound 0.03 µM): 2960 nM
- IC50 (second compound 0.0949 µM): 1700 nM
- IC50 (second compound 0.3 µM): 564 nM
- viability, T/C [1]: 121%
- viability, T/C [2]: 92.4%
- viability, T/C [3]: 81.9%
- viability, T/C [4]: 67.8%
- viability, T/C [5]: 61%
- viability, T/C [6]: 43.1%
- viability, T/C [7]: 119%
- viability, T/C [8]: 94.7%
- viability, T/C [9]: 75.5%
- viability, T/C [10]: 64.8%
- viability, T/C [11]: 64.2%
- viability, T/C [12]: 43%
- viability, T/C [13]: 113%
- viability, T/C [14]: 85.2%
- viability, T/C [15]: 72.7%
- viability, T/C [16]: 59%
- viability, T/C [17]: 64.6%
- viability, T/C [18]: 49.5%
- viability, T/C [19]: 106%
- viability, T/C [20]: 85.1%
- viability, T/C [21]: 76.9%
- viability, T/C [22]: 56.4%
- viability, T/C [23]: 56.7%
- viability, T/C [24]: 35%
- viability, T/C [25]: 105%
- viability, T/C [26]: 75.7%
- viability, T/C [27]: 59.4%
- viability, T/C [28]: 56.3%
- viability, T/C [29]: 51.8%
- viability, T/C [30]: 38.5%
- viability, T/C [31]: 73.4%
- viability, T/C [32]: 58%
- viability, T/C [33]: 56.2%
- viability, T/C [34]: 46.6%
- viability, T/C [35]: 42.8%
- viability, T/C [36]: 41%

SMILES: Nc1ccn(C2OC(CO)C(O)C2(F)F)c(=O)n1 (stereo unspecified) + CCn1c(-c2cccnc2C(C)OC)c2c3cc(ccc31)N1CCOC(CC(NC(=O)C(C(C)C)N(C)C(=O)C3(F)CCN(C(=O)C#CC(C)(C)N(C)C)CC3)C(=O)N3CCCC(N3)C(=O)OCC(C)(C)C2)C1
- IC50 (second compound 0.000949 µM): 15.2 nM
- IC50 (second compound 0.003 µM): 11.2 nM
- IC50 (second compound 0.00949 µM): 14.6 nM
- IC50 (second compound 0.03 µM): 11.5 nM
- IC50 (second compound 0.0949 µM): 10.1 nM
- IC50 (second compound 0.3 µM): 9.55 nM
- viability, T/C (second compound 0.000949 µM, first compound 0.00316 µM): 105%
- viability, T/C (second compound 0.000949 µM, first compound 0.01 µM): 62.8%
- viability, T/C [1]: 28%
- viability, T/C [2]: 13.1%
- viability, T/C [3]: 16.3%
- viability, T/C [4]: 14.2%
- viability, T/C (second compound 0.003 µM, first compound 0.00316 µM): 114%
- viability, T/C (second compound 0.003 µM, first compound 0.01 µM): 51.5%
- viability, T/C [7]: 29%
- viability, T/C [8]: 14.6%
- viability, T/C [9]: 11.6%
- viability, T/C [10]: 12.4%
- viability, T/C (second compound 0.00949 µM, first compound 0.00316 µM): 108%
- viability, T/C (second compound 0.00949 µM, first compound 0.01 µM): 61.2%
- viability, T/C [13]: 27.5%
- viability, T/C [14]: 14.7%
- viability, T/C [15]: 14.1%
- viability, T/C [16]: 13.2%
- viability, T/C (second compound 0.03 µM, first compound 0.00316 µM): 114%
- viability, T/C (second compound 0.03 µM, first compound 0.01 µM): 53.9%
- viability, T/C [19]: 22.2%
- viability, T/C [20]: 14.9%
- viability, T/C [21]: 14.6%
- viability, T/C [22]: 13.5%
- viability, T/C (second compound 0.0949 µM, first compound 0.00316 µM): 95.7%
- viability, T/C (second compound 0.0949 µM, first compound 0.01 µM): 50.1%
- viability, T/C [25]: 22.9%
- viability, T/C [26]: 14.3%
- viability, T/C [27]: 15.2%
- viability, T/C [28]: 12.6%
- viability, T/C (second compound 0.3 µM, first compound 0.00316 µM): 69.7%
- viability, T/C (second compound 0.3 µM, first compound 0.01 µM): 48.9%
- viability, T/C [31]: 27.8%
- viability, T/C [32]: 16.6%
- viability, T/C [33]: 17%
- viability, T/C [34]: 17%
